{"source": "patent US7495108B2", "about": "“Imidazoline derivatives having CB1-antagonistic activity” (Solvay Pharmaceuticals, B.V., priority 2004, dated 2009)", "key": {"[1]": {"biological_target": "human cannabinoid CB1 receptor (Homo sapiens, UniProt P21554)", "sequence (P21554 whole entry)": "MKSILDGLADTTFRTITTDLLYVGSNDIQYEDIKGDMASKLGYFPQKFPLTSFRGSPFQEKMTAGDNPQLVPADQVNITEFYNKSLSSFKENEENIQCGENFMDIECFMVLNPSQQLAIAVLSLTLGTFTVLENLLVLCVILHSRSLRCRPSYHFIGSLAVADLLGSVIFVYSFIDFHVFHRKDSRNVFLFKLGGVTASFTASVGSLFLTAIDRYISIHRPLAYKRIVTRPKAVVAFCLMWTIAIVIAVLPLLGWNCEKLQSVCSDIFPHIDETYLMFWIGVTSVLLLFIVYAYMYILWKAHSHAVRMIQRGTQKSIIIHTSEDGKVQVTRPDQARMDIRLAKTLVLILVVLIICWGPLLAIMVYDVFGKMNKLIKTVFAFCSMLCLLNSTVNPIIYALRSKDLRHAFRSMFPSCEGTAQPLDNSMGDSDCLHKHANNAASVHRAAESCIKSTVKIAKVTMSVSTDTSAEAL", "test": "In vitro affinity for cannabinoid-CB1 receptors ([3H]CP-55,940 radioligand binding, CHO cell membranes)", "details": "[3H]CP-55,940 as radioligand, read-out: In vitro affinity pKi value (converted)", "procedure": "In vitro Affinity for Cannabinoid-CB1 Receptors\nThe affinity of the compounds of the invention for cannabinoid CB1 receptors can be determined using membrane preparations of Chinese hamster ovary (CHO) cells in which the human cannabinoid CB1 receptor is stably transfected in conjunction with [^3H]CP-55,940 as radioligand. After incubation of a freshly prepared cell membrane preparation with the [^3H]-ligand, with or without addition of compounds of the invention, separation of bound and free ligand is performed by filtration over glassfiber filters. Radioactivity on the filter is measured by liquid scintillation counting."}, "[2]": {"biological_target": "human CB1 receptor (Homo sapiens, UniProt P21554)", "sequence (P21554 whole entry)": "as above", "test": "In vitro cannabinoid-CB1 receptor antagonism (WIN 55,212-2-induced [3H]-arachidonic acid release in CHO cells)", "type": "cell-based", "details": "antagonism of WIN 55,212-2-induced [3H]-arachidonic acid release, read-out: In vitro antagonism pA2-value (arachidonic acid release) (converted)", "procedure": "In vitro Cannabinoid-CB1 Receptor Antagonism\nIn vitro CB1 receptor antagonism can be assessed with the human CB1 receptor cloned in Chinese hamster ovary (CHO) cells. CHO cells are grown in a Dulbecco's Modified Eagle's medium (DMEM) culture medium, supplemented with 10% heat-inactivated fetal calf serum. Medium is aspirated and replaced by DMEM, without fetal calf serum, but containing [^3H]-arachidonic acid and incubated overnight in a cell culture stove (5% CO2/95% air; 37° C.; water-saturated atmosphere). During this period [^3H]-arachidonic acid is incorporated in membrane phospholipids. On the test day, medium is aspirated and cells are washed three times using 0.5 mL DMEM, containing 0.2% bovine serum albumin (BSA). Stimulation of the CB1 receptor by WIN 55,212-2 leads to activation of PLA2 followed by release of [^3H]-arachidonic acid into the medium. This WIN 55,212-2-induced release is concentration-dependently antagonized by CB1 receptor antagonists."}}}
{"smiles": "N/C(=N\\S(=O)(=O)c1ccc(Cl)cc1)C1CN(c2ccc(Cl)cc2)C(c2ccc(Cl)cc2Cl)=N1", "note": "(centres unmarked) [Compound 5, 1-(4-chlorophenyl)-2-(2,4-dichlorophenyl)-N-[(4-chlorophenyl)sulfonyl]-4,5-dihydro-1H-imidazole-4-carboxamidine]", "values": [{"measurement": "melting point", "result": "165 to 166", "unit": "°C"}]}
{"smiles": "CN(C)S(=O)(=O)/N=C(\\N)C1CN(c2ccc(Cl)cc2)C(c2ccc(Cl)cc2Cl)=N1", "note": "(centres unmarked) [Compound 8, 1-(4-chlorophenyl)-2-(2,4-dichlorophenyl)-N-(dimethylaminosul-fonyl)-4,5-dihydro-1H-imidazole-4-carboxamidine]", "values": [{"measurement": "melting point", "result": "146 to 147", "unit": "°C"}, {"measurement": "Ki", "setting": "[1]", "result": 158, "unit": "nM"}]}
{"smiles": "O=C(NC1CCCCC1)C1CN(c2ccc(Cl)cc2)C(c2ccc(Cl)cc2Cl)=N1", "note": "(centres unmarked) [Compound 4, 1-(4-Chlorophenyl)-2-(2,4-dichlorophenyl)-N-cyclohexyl4,5-dihydro-1H-imidazole-4-carboxamide]", "values": [{"measurement": "melting point", "result": "127 to 129", "unit": "°C"}, {"measurement": "Ki", "setting": "[1]", "result": 100, "unit": "nM"}, {"measurement": "Kb", "setting": "[2]", "result": 20, "unit": "nM"}]}
{"smiles": "O=C(NC1CC2CCC1C2)C1CN(c2ccc(Cl)cc2)C(c2ccc(Cl)cc2Cl)=N1", "note": "(single isomer, unassigned) [Compound 2, 1-(4-chlorophenyl)-2-(2,4-dichlorophenyl)-N-(exo-2-bicyclo[2.2.1]heptyl)-4,5-dihydro-1H-imidazole-4-carboxamide]", "values": [{"measurement": "Ki", "setting": "[1]", "result": 100, "unit": "nM"}]}
{"smiles": "O=C(NC1CC2CCC1C2)C1CN(c2ccc(Cl)cc2)C(c2ccc(Cl)cc2Cl)=N1", "note": "(single isomer, unassigned) [Compound 1, 1-(4-chlorophenyl)-2-(2,4-dichlorophenyl)-N-(exo-2-bicyclo[2.2.1]heptyl)-4,5-dihydro-1H-imidazole-4-carboxamide]", "values": [{"measurement": "Ki", "setting": "[1]", "result": 20, "unit": "nM"}]}
{"smiles": "N/C(=N\\S(=O)(=O)c1ccc(F)cc1)C1CN(c2ccc(Cl)cc2)C(c2ccc(Cl)cc2Cl)=N1", "note": "(centres unmarked)", "values": [{"measurement": "melting point", "result": "172 to 175", "unit": "°C"}]}
{"smiles": "CN(C)S(=O)(=O)/N=C(\\N)C1CN(c2ccccc2)C(c2ccc(Cl)cc2)=N1", "note": "(centres unmarked) [Compound 7, 2-(4-Chlorophenyl)-N-(dimethylaminosulfonyl)-1-phenyl-4,5-dihydro-1H-imidazole-4-carboxamidine]", "values": [{"measurement": "melting point", "result": "136 to 139", "unit": "°C"}]}
{"smiles": "O=C(NN1CCCCC1)C1CN(c2ccc(Cl)cc2)C(c2ccc(Cl)cc2Cl)=N1", "note": "(centres unmarked) [Compound 3, 1-(4-chlorophenyl)-2-(2,4-dichlorophenyl)-N-(piperidin-1-yl)-4,5-dihydro-1H-imidazole-4-carboxamide]", "values": [{"measurement": "melting point", "result": "113 to 116", "unit": "°C"}]}
